Patent US20220324865A1 (Bayer Aktiengesellschaft, priority 2018, published 2022)

target: T1, human EP3 receptor (Homo sapiens, UniProt P43115); assay: Cellular in vitro assay for determining EP3 receptor activity (human EP3 cell line, sulprostone-stimulated calcium luminescence); type: cell-based; conditions: CHO cells expressing human EP3 and mitochondrial Clytin; antagonist mode, sulprostone at EC50; read-out: EP3 CHO mtCLY ANTAG IC50
T1 construct: expressed in transfected cells; host or cells: CHO K1 (Chinese Hamster Ovary), stably co-transfected with Galpha16 and mitochondrial clytin
T1 sequence (P43115 1-390): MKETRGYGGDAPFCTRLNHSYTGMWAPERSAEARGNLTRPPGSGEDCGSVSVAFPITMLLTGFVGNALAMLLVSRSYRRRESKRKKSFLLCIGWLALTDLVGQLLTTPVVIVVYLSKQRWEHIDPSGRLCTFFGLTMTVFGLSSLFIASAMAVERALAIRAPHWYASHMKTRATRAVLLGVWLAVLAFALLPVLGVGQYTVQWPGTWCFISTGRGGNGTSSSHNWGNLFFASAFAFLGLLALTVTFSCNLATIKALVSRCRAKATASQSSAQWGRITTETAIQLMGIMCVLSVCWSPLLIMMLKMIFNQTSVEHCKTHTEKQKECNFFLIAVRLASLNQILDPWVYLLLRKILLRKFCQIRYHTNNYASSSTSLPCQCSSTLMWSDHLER
How it was run: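 Antagonist activity was measured as inhibition of the luminescent calcium signal elicited by EC50 sulprostone, following 10 min compound pretreatment. The cell line was recombinant CHO K1 co-expressing human EP3, Gα16 and the photoprotein Clytin, reconstituted with coelenterazine.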

Row | Structure (SMILES) | IC50 [nM]
1 | Cc1ccc(-c2cn3nc(C(=O)N[C@@H](c4ccc(F)cc4)C(C)(C)O)c(C(F)(F)F)c3c(=O)[nH]2)cc1Cl [Example 1-151, 6-(3-Chloro-4-methylphenyl)-N-[(1S)-1-(4-fluorophenyl)-2-hydroxy-2-methylpropyl]-4-oxo-3-(trifluoromethyl)-4,5-dihydropyrazolo[1,5-a]pyrazine-2-carboxamide] | 1.15
2 | Cc1c(C(=O)NCc2ccncc2)nn2c(C)c(-c3ccc4ccccc4c3)[nH]c(=O)c12 [Example 3-64, 3,7-Dimethyl-6-(naphthalen-2-yl)-4-oxo-N-[(pyridin-4-yl)methyl]-4,5-dihydropyrazolo[1,5-a]pyrazine-2-carboxamide] | 4.4
3 | CC(NC(=O)c1cc2c(=O)[nH]c(-c3ccc4ccccc4c3)cn2n1)c1ccc(Cl)c(Cl)c1 (centres unmarked) [Example 2-36, N-[1-(3,4-Dichlorphenyl)ethyl]-6-(2-naphthyl)-4-oxo-4,5-dihydropyrazolo[1,5-a]pyrazine-2-carboxamide] | 2.8
4 | Cc1ccc(-c2cn3nc(C(=O)N[C@@H](c4ccc(F)cc4)C(C)(C)O)c(C)c3c(=O)[nH]2)cc1Cl [Example 1-148, 6-(3-Chloro-4-methylphenyl)-N-[(1S)-1-(4-fluorophenyl)-2-hydroxy-2-methylpropyl]-3-methyl-4-oxo-4,5-dihydropyrazolo[1,5-a]pyrazine-2-carboxamide] | 1.33
5 | C[C@@H](NC(=O)c1cc2c(=O)[nH]c(-c3ccc4ccccc4n3)cn2n1)c1ccc(F)cc1 [Example 1-105, N-[(1R)-1-(4-Fluorophenyl)ethyl]-4-oxo-6-(quinolin-2-yl)-4,5-dihydropyrazolo[1,5-a]pyrazine-2-carboxamide] | 1.48
6 | O=C(NC(c1ccc(F)cc1)C1(O)CC1)c1nn2cc(-c3ccc(Cl)c(Cl)c3)[nH]c(=O)c2c1C1CC1 (racemic) [6-422] | 0.7
7 | COc1ccc(C(C)NC(=O)c2cc3c(=O)[nH]c(-c4ccc5ccccc5n4)cn3n2)cn1 (centres unmarked) [Example 1-106, N-[1-(6-Methoxypyridin-3-yl)ethyl]-4-oxo-6-(quinolin-2-yl)-4,5-dihydropyrazolo[1,5-a]pyrazine-2-carboxamide] | 5.65
8 | Cc1ccnc(C(C)NC(=O)c2nn3cc(-c4cnc5cccc(C)c5c4)[nH]c(=O)c3c2C(C)C)n1 (centres unmarked) [Example 4-47, 3-Isopropyl-N-[1-(4-methylpyrimidin-2-yl)ethyl]-6-(5-methyl-3-quinolyl)-4-oxo-5H-pyrazolo[1,5-a]pyrazine-2-carboxamide] | 3.1
9 | Cc1ccc(-c2cn3nc(C(=O)N[C@@H](c4ccc(F)cc4)[C@@H](O)C(F)(F)F)c(C4CC4)c3c(=O)[nH]2)cc1Cl [6-273] | 1.1
10 | Cc1cccc2ncc(-c3cn4nc(C(=O)N[C@H]5c6ccccc6C[C@H]5O)c(C(C)C)c4c(=O)[nH]3)cc12 [Example 4-69, N-[(7S,2R)-2-Hydroxy-2,3-dihydro-1H-inden-1-yl]-6-(5-methylquinolin-3-yl)-4-oxo-3-(propan-2-yl)-4,5-dihydropyrazolo[1,5-a]pyrazine-2-carboxamide] | 2
11 | Cc1ccc(-c2cn3nc(C(=O)N[C@@H](c4ccc(F)cc4)C(C)(C)O)c(C)c3c(=O)[nH]2)c(F)c1C [Example 1-164, 6-(2-Fluoro-3,4-dimethylphenyl)-N-[(15)-1-(4-fluorophenyl)-2-hydroxy-2-methylpropyl]-3-methyl-4-oxo-4,5-dihydropyrazolo[1,5-a]pyrazine-2-carboxamide] | 2.9
12 | O=C(NC(CO)c1ccc(F)cc1)c1cc2c(=O)[nH]c(-c3ccc4ccccc4c3)cn2n1 (centres unmarked) [Example 1-61, N-[1-(4-Fluorophenyl)-2-hydroxyethyl]-6-(2-naphthyl)-4-oxo-5H-pyrazolo[1 ,5-a]pyrazine-2-carboxamide] | 4.2
13 | Cc1cc(-c2cn3nc(C(=O)NC4(c5ccc(F)cc5)CN(C)C4)c(C4CC4)c3c(=O)[nH]2)ccc1Cl [6-333] | 4
14 | O=C(NC(CO)c1ccc(F)cc1)c1cc2c(=O)[nH]c(-c3ccc4cccnc4c3)cn2n1 (centres unmarked) [6-30] | 2.15
15 | Cc1ccc(-c2cn3nc(C(=O)N[C@@H](CCO)c4ccc(F)cc4)c(C#N)c3c(=O)[nH]2)cc1C [Example 1-75, 3-Cyano-6-(3,4-dimethylphenyl)-N-[(1S)-1-(4-fluorophenyl)-3-hydroxpropyl]-4-oxo-4,5-dihydropyrazolo[1,5-a]pyrazine-2-carboxamide] | 8.75
16 | Cc1ccc(-c2cn3nc(C(=O)NCC(C)(C)O)c(C4CC4)c3c(=O)[nH]2)cc1Cl [6-285] | 3.35
17 | CCn1cc(CNC(=O)c2nn3c(C)c(-c4ccc5ccccc5c4)[nH]c(=O)c3c2C)c(C)n1 [Example 3-14, N-[(1-Ethyl-3-methyl-1H-pyrazol-4-yl)methyl]-3,7-dimethyl-6-(naphthalen-2-yl)-4-oxo-4,5-dihydropyrazolo[1,5-a]pyrazine-2-carboxamide] | 1.25
18 | Cc1cc(-c2cn3nc(C(=O)NCC(O)C(F)(F)F)c(C4CC4)c3c(=O)[nH]2)ccc1Cl (single isomer, unassigned) [6-314] | 0.85
19 | O=C(N[C@H](CCO)c1ccc(F)cc1)c1nn2cc(-c3ccc4ccccc4c3)[nH]c(=O)c2c1Cl [Example 1-120, 3-Chloro-N-[(1R)-1-(4-fluorophenyl)-3-hydroxypropyl]-6-(naphthalen-2-yl)-4-oxo-4,5-dihydropyrazolo[1,5-a]pyrazine-2-carboxamide] | 0.495

Row | Structure (SMILES) | IC50 [nM]
20 | Cc1ccc(-c2cn3nc(C(=O)N[C@@H](c4ccc(F)cc4)C(F)(F)CO)c(C(F)(F)C(F)(F)F)c3c(=O)[nH]2)cc1F [6-491] | 0.58
21 | Cc1cc(-c2cn3nc(C(=O)N[C@@H](C)C(C)C)c(C4CC4)c3c(=O)[nH]2)ccc1Cl [6-302] | 2.95
22 | COCc1c(C(=O)N[C@H](CCO)c2ccc(F)cc2)nn2cc(-c3ccc4ccccc4c3)[nH]c(=O)c12 [Example 1-55, N-[(1R)-1-(4-Fluorophenyl)-3-hydroxopyl]-3-(methoxymethyl)-6-(naphthalen-2-yl)-4-oxo-4,5-dihydropyrazolo[1,5-a]pyrazine-2-carboxamide] | 0.488
23 | Cc1ccc(-c2cn3nc(C(=O)N[C@@H](c4ccc(F)cc4)C(C)(C)O)c(C(F)(F)C(F)(F)F)c3c(=O)[nH]2)cc1F [6-492] | 1.8
24 | Cc1ccc(-c2cn3nc(C(=O)NC(CN(C)C)c4ccc(F)cc4)c(C4CC4)c3c(=O)[nH]2)cc1C (single isomer, unassigned) [6-445] | 7.1
25 | Cc1ccc(-c2cn3nc(C(=O)N[C@@H](c4ccc(F)cc4)C(C)(C)O)c(C4CCC4)c3c(=O)[nH]2)cc1C [6-577] | 2.7
26 | Cc1ccc(-c2cn3nc(C(=O)NCC(N)C(F)(F)F)c(C(F)(F)F)c3c(=O)[nH]2)cc1C (racemic) [6-118] | 5.6
27 | C[C@H](NC(=O)c1nn2cc(-c3ccc4ccccc4c3)[nH]c(=O)c2c1C#N)c1ccccc1 [Example 3-46, 3-Cyano-6-(naphthalen-2-yl)-4-oxo-N-[(1S)-1-phenylethyl]-4,5-dihydropyrazolo[1,5-a]pyrazine-2-carboxamide] | 3.2
28 | Cc1cc(-c2cn3nc(C(=O)N[C@@H](C)C4CC4)c(C4CC4)c3c(=O)[nH]2)ccc1Cl [6-296] | 1.6
29 | Cc1ccc(-c2cn3nc(C(=O)N[C@H](C)c4ccc(F)cc4)c(C4CC4)c3c(=O)[nH]2)cc1C [Example 1-84, 3-Cyclopropyl-6-(3,4-dimethylphenyl)-N-[(1R)-1-(4-fluorophenyl)ethyl]-4-oxo-4,5-dihydropyrazolo[1,5-a]pyrazine-2-carboxamide] | 1.2
30 | Cc1ccc(-c2cn3nc(C(=O)NC(c4ccc(C(F)(F)F)cc4)C(C)(C)O)c(C4CC4)c3c(=O)[nH]2)cc1C (single isomer, unassigned) [6-458] | 2.15
31 | COc1ccc(C(CCO)NC(=O)c2cc3c(=O)[nH]c(-c4ccc(C)c(C(F)(F)F)c4)cn3n2)cc1 (centres unmarked) [6-32] | 7.5
32 | Cc1nn(C)c(C)c1C(C)NC(=O)c1cc2c(=O)[nH]c(-c3ccc4ccccc4c3)cn2n1 (centres unmarked) [Example 2-21, 6-(2-Naphthyl)-4-oxo-N-[1-(1,3,5-trimethyl-1H-pyrazol-4-yl)ethyl]-4,5-dihydropyrazolo[1,5-a]pyrazine-2-carboxamide] | 4.45
33 | CC(=O)N1CC(NC(=O)c2cc3c(=O)[nH]c(-c4ccc5ccccc5c4)cn3n2)(c2ccc(F)cc2)C1 [Example 1-146, N-[1-Acetyl-3-(4-fluorophenyl)azetidin-3-yl]-6-(2-naphthyl)-4-oxo-5H-pyrazolo[1,5-a]pyrazine-2-carboxamide] | 4.5
34 | CCN1CCC(NC(=O)c2nn3cc(-c4ccc(C)c(F)c4)[nH]c(=O)c3c2C2CC2)(C(F)(F)F)C1 (single isomer, unassigned) [6-406] | 23.5
35 | C[C@H](NC(=O)c1cc2c(=O)[nH]c(-c3ccc4ccccc4c3)cn2n1)c1cccc2ccccc12 [Example 2-6] | 8.75
36 | O=C(NCCc1ccccc1F)c1cc2c(=O)[nH]c(-c3ccc4ccccc4c3)cn2n1 [Example 2-9, N-[2-(2-Fluorophenyl)ethyl]-6-(2-naphthyl)-4-oxo-4,5-dihydropyrazolo[1,5-a]pyrazine-2-carboxamide] | 3.65
37 | CCC(NC(=O)c1cc2c(=O)[nH]c(-c3ccc4ccccc4c3)cn2n1)C(F)(F)F (centres unmarked) [6-61] | 4.13
38 | Cc1cccc2ncc(-c3cn4nc(C(=O)NCc5cnn(C)c5)c(C(C)C)c4c(=O)[nH]3)cc12 [Example 4-37, N-[(1-Methyl-1H-pyrazol-4-yl)methyl]-6-(5-methylquinolin-3-yl)-4-oxo-3-(propan-2-yl)-4,5-dihydropyrazolo[1,5-a]pyrazine-2-carboxamide] | 2
